# Test results: US20140371074A1, “METHOD TO INCREASE PLANT YIELD” (priority 2012, published 2014)
# What was measured:
# [1] = test system: soybean cultivars L2084R2, L2711R2X; test: Field 2012: 2,4-D Low Vol 4 + crop oil drizzled onto soil at R1 stage, Alexander, Iowa (Table 2a); type: in vivo
# Experimental: Plants were treated by drizzling via low pressure spraying the 2,4-D solution onto the soil along each side of the rows when plants are at the R1 stage of growth. The date of planting was May 15, 2012 and the date of harvest was Oct. 2, 2012 at plots in Alexander, Iowa (Table 2a) and Laurel, Iowa (Table 2b). Plants were grown from Roundup Ready seed and were sprayed with glyphosate for weed control. Plants were treated with between 1X and 5.5X of 2,4-D solution mixed with crop oil at 15.3 ounces of 2,4-D Low Vol 4 plus 0.32 ounces crop oil per gallon, where 1X is equivalent to approximately 0.45 pounds acid equivalent of 2,4-D. Two repetitions were performed at different plots. […] The moisture percentages were used in correcting each yield to a 13% moisture basis.
# [2] = test system: soybean Latham 2767 Roundup Ready; test: Field: seed treatment with 2,4-D solution 1X-10X, Laurel, Iowa (Table 6); type: in vivo; settings: 1X~0.0002968 lb a.e.
# Experimental: Previously untreated soybean seeds were treated with between 1X to 10X of 2,4-D solution, where 1X is equivalent to approximately 0.0002968 pounds acid equivalent of 2,4-D. The seed variety was Latham 2767 Roundup Ready seeds and seeds were planted in Laurel, Iowa with a row width of 30 inches. Plants were sprayed with foliar insecticide and fungicide.
# [3] = 1.0X Rate, L2084R2, 1X~0.45 lb a.e.
# [4] = 1.0X Rate, L2711R2X, 1X~0.45 lb a.e.
# [5] = 1.5X Rate, L2084R2, 1X~0.45 lb a.e.
# [6] = 1.5X Rate, L2711R2X, 1X~0.45 lb a.e.
# [7] = 2.0X Rate, L2084R2, 1X~0.45 lb a.e.
# [8] = 2.0X Rate, L2711R2X, 1X~0.45 lb a.e.
# [9] = 2.5X Rate, L2084R2, 1X~0.45 lb a.e.
# [10] = 2.5X Rate, L2711R2X, 1X~0.45 lb a.e.
# [11] = 3.0X Rate, L2084R2, 1X~0.45 lb a.e.
# [12] = 3.0X Rate, L2711R2X, 1X~0.45 lb a.e.
# [13] = 3.5X Rate, L2084R2, 1X~0.45 lb a.e.
# [14] = 3.5X Rate, L2711R2X, 1X~0.45 lb a.e.
# [15] = 4.0X Rate, L2084R2, 1X~0.45 lb a.e.
# [16] = 4.0X Rate, L2711R2X, 1X~0.45 lb a.e.
# [17] = 4.5X Rate, L2084R2, 1X~0.45 lb a.e.
# [18] = 4.5X Rate, L2711R2X, 1X~0.45 lb a.e.
# [19] = 5.0X Rate, L2084R2, 1X~0.45 lb a.e.
# [20] = 5.0X Rate, L2711R2X, 1X~0.45 lb a.e.
# [21] = 5.5X Rate, L2084R2, 1X~0.45 lb a.e.
# [22] = 5.5X Rate, L2711R2X, 1X~0.45 lb a.e.
# [23] = Average over 1.0X-3.0X Rates, L2084R2
# [24] = Average over 1.0X-3.0X Rates, L2711R2X
# [25] = Average over 1.0X-5.5X Rates, L2084R2
# [26] = Average over 1.0X-5.5X Rates, L2711R2X
# [27] = Overall location average, all rates, both cultivars
smiles,measurement,setting,value
"O=C(O)COc1ccc(Cl)cc1Cl [2,4-D, 2,4-Dichlorophenoxyacetic acid]",Average Yield,[1]; [3],47.77 Bu/A
same,Repetition 1 Weight,[1]; [3],4.3 Lbs
same,Repetition 1 Yield,[1]; [3],49.06 Bu/A
same,Repetition 2 Weight,[1]; [3],4.1 Lbs
same,Repetition 2 Yield,[1]; [3],46.48 Bu/A
same,Average Yield,[1]; [4],46.66 Bu/A
same,Repetition 1 Weight,[1]; [4],3.7 Lbs
same,Repetition 1 Yield,[1]; [4],42.30 Bu/A
same,Repetition 2 Weight,[1]; [4],4.5 Lbs
same,Repetition 2 Yield,[1]; [4],51.02 Bu/A
same,Average Yield,[1]; [5],47.65 Bu/A
same,Repetition 1 Weight,[1]; [5],3.4 Lbs
same,Repetition 1 Yield,[1]; [5],38.79 Bu/A
same,Repetition 2 Weight,[1]; [5],5 Lbs
same,Repetition 2 Yield,[1]; [5],56.51 Bu/A
same,Average Yield,[1]; [6],52.85 Bu/A
same,Repetition 1 Weight,[1]; [6],3.9 Lbs
same,Repetition 1 Yield,[1]; [6],44.54 Bu/A
same,Repetition 2 Weight,[1]; [6],5.4 Lbs
same,Repetition 2 Yield,[1]; [6],61.16 Bu/A
same,Average Yield,[1]; [7],51.64 Bu/A
same,Repetition 1 Weight,[1]; [7],4.5 Lbs
same,Repetition 1 Yield,[1]; [7],51.23 Bu/A
same,Repetition 2 Weight,[1]; [7],4.6 Lbs
same,Repetition 2 Yield,[1]; [7],52.04 Bu/A
same,Repetition 2 Weight,[1]; [8],4.1 Lbs
same,Repetition 2 Yield,[1]; [8],46.43 Bu/A
same,Average Yield,"[1]; 2.0X Rate, L2711R2X, 1X~0.45 lb a.e., repetition 2 only",46.43 Bu/A
same,Average Yield,[1]; [9],38.59 Bu/A
same,Repetition 1 Weight,[1]; [9],3.1 Lbs
same,Repetition 1 Yield,[1]; [9],35.37 Bu/A
same,Repetition 2 Weight,[1]; [9],3.7 Lbs
same,Repetition 2 Yield,[1]; [9],41.81 Bu/A
same,Average Yield,[1]; [10],39.75 Bu/A
same,Repetition 1 Weight,[1]; [10],3.1 Lbs
same,Repetition 1 Yield,[1]; [10],35.29 Bu/A
same,Repetition 2 Weight,[1]; [10],3.9 Lbs
same,Repetition 2 Yield,[1]; [10],44.21 Bu/A
same,Average Yield,[1]; [11],43.14 Bu/A
same,Repetition 1 Weight,[1]; [11],3.5 Lbs
same,Repetition 1 Yield,[1]; [11],39.89 Bu/A
same,Repetition 2 Weight,[1]; [11],4.1 Lbs
same,Repetition 2 Yield,[1]; [11],46.38 Bu/A
same,Average Yield,[1]; [12],45.36 Bu/A
same,Repetition 1 Weight,[1]; [12],3.7 Lbs
same,Repetition 1 Yield,[1]; [12],42.08 Bu/A
same,Repetition 2 Weight,[1]; [12],4.3 Lbs
same,Repetition 2 Yield,[1]; [12],48.65 Bu/A
same,Repetition 1 Weight,[1]; [13],3.4 Lbs
same,Repetition 1 Yield,[1]; [13],38.55 Bu/A
same,Average Yield,"[1]; 3.5X Rate, L2084R2, 1X~0.45 lb a.e., repetition 1 only",38.55 Bu/A
same,Repetition 1 Weight,[1]; [14],4.2 Lbs
same,Repetition 1 Yield,[1]; [14],47.77 Bu/A
same,Average Yield,"[1]; 3.5X Rate, L2711R2X, 1X~0.45 lb a.e., repetition 1 only",47.77 Bu/A
same,Repetition 1 Weight,[1]; [15],4.5 Lbs
same,Repetition 1 Yield,[1]; [15],51.07 Bu/A
same,Average Yield,"[1]; 4.0X Rate, L2084R2, 1X~0.45 lb a.e., repetition 1 only",51.07 Bu/A
same,Repetition 1 Weight,[1]; [16],5.4 Lbs
same,Repetition 1 Yield,[1]; [16],61.28 Bu/A
same,Average Yield,"[1]; 4.0X Rate, L2711R2X, 1X~0.45 lb a.e., repetition 1 only",61.28 Bu/A
same,Repetition 1 Weight,[1]; [17],4.7 Lbs
same,Repetition 1 Yield,[1]; [17],53.28 Bu/A
same,Average Yield,"[1]; 4.5X Rate, L2084R2, 1X~0.45 lb a.e., repetition 1 only",53.28 Bu/A
same,Repetition 1 Weight,[1]; [18],4.7 Lbs
same,Repetition 1 Yield,[1]; [18],53.40 Bu/A
same,Average Yield,"[1]; 4.5X Rate, L2711R2X, 1X~0.45 lb a.e., repetition 1 only",53.40 Bu/A
same,Repetition 1 Weight,[1]; [19],4.1 Lbs
same,Repetition 1 Yield,[1]; [19],46.58 Bu/A
same,Average Yield,"[1]; 5.0X Rate, L2084R2, 1X~0.45 lb a.e., repetition 1 only",46.58 Bu/A
same,Repetition 1 Weight,[1]; [20],4.3 Lbs
same,Repetition 1 Yield,[1]; [20],48.90 Bu/A
same,Average Yield,"[1]; 5.0X Rate, L2711R2X, 1X~0.45 lb a.e., repetition 1 only",48.90 Bu/A
same,Repetition 1 Weight,[1]; [21],4.2 Lbs
same,Repetition 1 Yield,[1]; [21],47.67 Bu/A
same,Average Yield,"[1]; 5.5X Rate, L2084R2, 1X~0.45 lb a.e., repetition 1 only",47.67 Bu/A
same,Repetition 1 Weight,[1]; [22],4.1 Lbs
same,Repetition 1 Yield,[1]; [22],46.48 Bu/A
same,Average Yield,"[1]; 5.5X Rate, L2711R2X, 1X~0.45 lb a.e., repetition 1 only",46.48 Bu/A
same,Repetition 2 Weight,[1]; [23],4.3 Lbs
same,Repetition 2 Yield,[1]; [23],48.65 Bu/A
same,Repetition 2 Weight,[1]; [24],4.4 Lbs
same,Repetition 2 Yield,[1]; [24],50.29 Bu/A
same,Average Yield,[1]; [25],46.59 Bu/A
same,Repetition 1 Weight,[1]; [25],4.0 Lbs
same,Repetition 1 Yield,[1]; [25],45.15 Bu/A
same,Average Yield,[1]; [26],48.89 Bu/A
same,Repetition 1 Weight,[1]; [26],4.1 Lbs
same,Repetition 1 Yield,[1]; [26],46.89 Bu/A
same,Average Yield,[1]; [27],47.74 Bu/A
same,Repetition 1 Weight,[1]; [27],4.0 Lbs
same,Repetition 1 Yield,[1]; [27],45.97 Bu/A
same,Repetition 2 Weight,[1]; [27],4.4 Lbs
same,Repetition 2 Yield,[1]; [27],49.47 Bu/A
same,plant yield (in words),"[1]; Table 2a, 2,4-D mixture 1.0X-5.5X vs untreated",increases plant yield
same,Harvested weight,[2]; 1X seed treatment,125 g
same,Yield (Bushels/acre at 13% moisture),[2]; 1X seed treatment,60.71 Bushels/acre
same,Harvested weight,[2]; 2X seed treatment,90 g
same,Yield (Bushels/acre at 13% moisture),[2]; 2X seed treatment,42.26 Bushels/acre
same,Harvested weight,[2]; 3X seed treatment,100 g
same,Yield (Bushels/acre at 13% moisture),[2]; 3X seed treatment,45.23 Bushels/acre
same,Harvested weight,[2]; 4X seed treatment,100 g
same,Yield (Bushels/acre at 13% moisture),[2]; 4X seed treatment,44.23 Bushels/acre
same,Harvested weight,[2]; 5X seed treatment,105 g
same,Yield (Bushels/acre at 13% moisture),[2]; 5X seed treatment,45.33 Bushels/acre
same,Harvested weight,[2]; 6X seed treatment,110 g
same,Yield (Bushels/acre at 13% moisture),[2]; 6X seed treatment,48.22 Bushels/acre
same,Harvested weight,[2]; 7X seed treatment,105 g
same,Yield (Bushels/acre at 13% moisture),[2]; 7X seed treatment,44.36 Bushels/acre
same,Harvested weight,[2]; 8X seed treatment,110 g
same,Yield (Bushels/acre at 13% moisture),[2]; 8X seed treatment,46.32 Bushels/acre
same,Harvested weight,[2]; 9X seed treatment,100 g
same,Yield (Bushels/acre at 13% moisture),[2]; 9X seed treatment,43.06 Bushels/acre
same,Harvested weight,[2]; 10X seed treatment,95 g
same,Yield (Bushels/acre at 13% moisture),[2]; 10X seed treatment,42.12 Bushels/acre
